This note sets out measurements from ChEMBL document CHEMBL4145513, “An overview on crystal structures of InhA protein: Apo-form, in complex with its natural ligands and inhibitors” (Eur J Med Chem, 2018).

Structures are written as SMILES. Values after ≈ are worked out from the molar mass of the structure shown.

For assay [1], the target named is T1, Enoyl-[acyl-carrier-protein] reductase [NADH] (Mycobacterium tuberculosis, UniProt P9WGR1).
T1 sequence (P9WGR1 whole entry): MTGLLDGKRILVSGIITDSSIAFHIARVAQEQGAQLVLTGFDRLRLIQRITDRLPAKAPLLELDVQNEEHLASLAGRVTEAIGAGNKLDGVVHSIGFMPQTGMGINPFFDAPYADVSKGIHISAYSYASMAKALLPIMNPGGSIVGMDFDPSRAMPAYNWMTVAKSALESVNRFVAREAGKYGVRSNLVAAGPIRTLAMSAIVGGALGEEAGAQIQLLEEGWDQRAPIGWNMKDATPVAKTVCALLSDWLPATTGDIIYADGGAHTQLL
Put plainly: Inhibition of Mycobacterium tuberculosis InhA.

For assay [2], the system named is Mycobacterium tuberculosis. Put plainly: Antimycobacterial activity against Mycobacterium tuberculosis. Format: functional.
Assay [3] has as its target T1, Enoyl-[acyl-carrier-protein] reductase [NADH]. Put plainly: Binding affinity to Mycobacterium tuberculosis InhA in presence of NADH by surface plasmon resonance assay. On the technique in general: Surface plasmon resonance follows binding to a sensor surface in real time, without labels.
Assay [4] has the same target. Put plainly: Binding affinity to Mycobacterium tuberculosis InhA in presence of NAD+ by surface plasmon resonance assay.
Assay [5] deals with Mycobacterium tuberculosis. As to the kind of experiment: Antimycobacterial activity against Mycobacterium tuberculosis after 5 days by fluoresence analysis. The class given is functional. The settings on record: 120 h.
Assay [6] addresses T1, Enoyl-[acyl-carrier-protein] reductase [NADH].
For assay [7] the target is unchanged. As to the kind of experiment: Inhibition of Mycobacterium tuberculosis InhA using trans-2-dodecenoyl-CoA as substrate.
The target is the same in assay [8]. Put plainly: Binding affinity to Mycobacterium tuberculosis InhA in presence of TCEP and NADH by isothermal titration calorimetry.
For assay [9] the target is unchanged. Put plainly: Inhibition of Mycobacterium tuberculosis InhA using dodecenoyl-CoA as substrate in presence of NADH by fluorimetric analysis.
The target is the same in assay [10]. As to the kind of experiment: Inhibition of Mycobacterium tuberculosis InhA using trans-2-decenoyl-CoA as substrate by spectrophotometric analysis.
The target is the same in assay [11]. As to the kind of experiment: Binding affinity to Mycobacterium tuberculosis InhA in presence of NADH.
Assay [12] has the same target. Put plainly: Binding affinity to Mycobacterium tuberculosis InhA in presence of NAD+.

For orientation: Ki means a dissociation constant, usually derived from enzyme kinetics or from competition with a known ligand. A higher Ki goes with a looser hold on the target. Broadly, the MIC99 is an inhibitory concentration at the 99% level, which refers to growth in some studies and to a panel of isolates in others. A lower MIC99 goes with greater potency. In turn, `CCCCc1ccnc(Cc2ccc(Oc3ccc(Cl)cc3Cl)c(O)c2)c1` displayed a Ki in [1] of 1100 nM. Moreover, the MIC99 in assay [2] came to 6.4 µM (≈ 2.57 µg/mL).
Usually MIC50 stands for an inhibitory concentration at the 50% level, which refers to growth in some studies and to a panel of isolates in others. The low end stands for greater potency, the high end for weaker potency. Regarding `CCCc1cc(C(=O)c2cc[n+]([C@@H]3O[C@H](COP(=O)(O)OP(=O)(O)OC[C@H]4O[C@@H](n5cnc6c(N)ncnc65)[C@H](O)[C@@H]4O)[C@@H](O)[C@H]3O)cc2C(N)=O)ccn1`, in assay [1], affinity was put at a Ki of 2 nM. In assay [2], this compound yielded an MIC50 of 2.7 µM.
In the case of `CCCCCCc1ccc(Oc2ccccc2Cl)c(O)c1`, the MIC50 in assay [2] amounted to 5.1 µM (≈ 1.55 µg/mL).
By Kd is commonly meant the free concentration of one partner at which half of the binding sites on the other are occupied at equilibrium, for simple one-to-one binding. As a reminder, the IC50 is the midpoint of a concentration-inhibition curve. As for `CNC(=O)CN1CCN(C(=O)[C@H]2CC[C@@H](NC(=O)Cc3sc4ccccc4c3C)CC2)[C@@H](Cc2ccccc2)C1=O`, the figures for the Kd in [3] and in assay [4] were 340 nM and 13400 nM, respectively. The same compound came in with an MIC50 in assay [5] of 13 µM (≈ 7.47 µg/mL). In addition, the midpoint of inhibition in [6], the IC50, lay at 65 nM.
The corresponding values for `CNC(=O)[C@@H]1C[C@H](NC(=O)[C@@H](NC(=O)c2ccc(Cn3cccn3)cc2)[C@@H](C)OC(C)(C)C)CN1C(=O)c1ccccc1` are 55 nM, 49000 nM, 0.13 µM (≈ 0.0765 µg/mL) and 12000 nM.
As to `CCc1cc(C(=O)c2cc[n+]([C@@H]3O[C@H](COP(=O)(O)OP(=O)(O)OC[C@H]4O[C@@H](n5cnc6c(N)ncnc65)[C@H](O)[C@@H]4O)[C@@H](O)[C@H]3O)cc2C(N)=O)ccn1`, the inhibitory constant (Ki) in [1] is 7 nM. This compound showed an MIC50 in [2] of 3 µM.
`NC(=O)c1c[n+]([C@@H]2O[C@H](COP(=O)(O)OP(=O)(O)OC[C@H]3O[C@@H](n4cnc5c(N)ncnc54)[C@H](OP(=O)(O)O)[C@@H]3O)[C@@H](O)[C@H]2O)ccc1C(=O)c1ccncc1`: the affinity in assay [1] corresponds to a Ki of 130 nM.
Regarding `CCCCCCc1ccc(Oc2ccccc2Br)c(O)c1`, the IC50 in assay [1] amounted to 10 nM. The MIC50 in assay [2] stood at 8.8 µM (≈ 3.07 µg/mL).
In assay [2], `O=c1[nH]c(CC2CCCCC2)cc(O)c1-c1ccccc1` came in with an MIC50 of 0.31 µM (≈ 0.0878 µg/mL). Further, the IC50 in assay [7] was 590 nM. Further, the equilibrium dissociation constant (Kd) in [8] amounted to 560 nM.
With `CCCCCc1ccc(Oc2ccc(Cl)cc2Cl)c(O)c1`, the Ki in [1] was 11.8 nM. The same compound gave an MIC99 in [2] of 3.5 µM (≈ 1.14 µg/mL).
`CC1(C)CCC(Cc2cc(O)c(-c3ccccc3)c(=O)[nH]2)CC1` came in with an MIC50 in assay [2] of 0.08 µM (≈ 0.0249 µg/mL). In addition, in [7], the half-inhibitory concentration (IC50) turned out to be 570 nM.
`Oc1cc(CCc2ccccc2)ccc1Oc1ccc(Cl)cc1Cl`: in assay [1], the half-inhibitory concentration (IC50) was determined as 21 nM. For the same compound, the MIC50 in [2] stood at 52 µM (≈ 18.7 µg/mL).
On to `CNC(=O)CN(C(=O)Cc1ccc(-n2cccn2)cc1)C1CCN(c2ccccn2)CC1`, for which the dissociation constant (Kd) in assay [3] was 36.8 nM; in assay [4], more than 100000 nM. In [5], the MIC50 was found to be 50 µM (≈ 21.6 µg/mL). In assay [6], this compound showed a 50% inhibitory concentration (IC50) of 5900 nM.
The MIC90 is an inhibitory concentration at the 90% level, which refers to growth in some studies and to a panel of isolates in others. Take `Cc1cc(C)n(Cc2ccc(C(=O)NCc3ccc(F)cc3Cl)cc2)n1`: the Ki in assay [1] is 50 nM. For the same compound, the MIC90 in assay [2] is 10 µM (≈ 3.72 µg/mL).
Regarding `CNC(=O)c1cnc(NC2CCN(c3ccccn3)CC2)c(NCc2ccc(F)c(Oc3ccccc3)c2)c1`, the Kd in assay [3] was 250 nM; in [4], more than 100000 nM. The same compound came in with an MIC50 in [5] of 25 µM (≈ 13.2 µg/mL). In [6], 297 nM corresponded to half-maximal inhibition (IC50).
The compound `Cc1csc(C(C)(O)c2n[nH]/c(=N\C(=O)c3c(F)cccc3F)s2)n1` (centres undefined) had an MIC50 in [2] of 3.75 µM (≈ 1.43 µg/mL). For the same compound, the IC50 in assay [9] amounted to 200 nM.
In assay [1], `Oc1cc(CC2CCCCC2)ccc1Oc1ccc(Cl)cc1Cl` displayed an IC50 of 110 nM. For the same compound, the MIC50 in assay [2] was determined as 27 µM (≈ 9.48 µg/mL).
In the case of `CNC(=O)CN(Cc1ccc(F)cc1)C(=O)[C@H]1CC[C@@H](NC(=O)Cc2sc3ccccc3c2C)CC1`, the Kd in assay [3] worked out at 94 nM; in assay [4] it was 46700 nM. In [6], this compound showed a half-inhibitory concentration (IC50) of 600 nM.
The compound `NC(=O)c1c[n+]([C@@H]2O[C@H](COP(=O)(O)OP(=O)(O)OC[C@H]3O[C@@H](n4cnc5c(N)ncnc54)[C@H](O)[C@@H]3O)[C@@H](O)[C@H]2O)ccc1C(=O)c1ccncc1` returned an inhibition constant Ki in assay [10] of 0.75 nM.
In assay [2], `CCCCCCc1ccc(Oc2ccccc2C)c(O)c1` gave an MIC50 of 10.9 µM (≈ 3.1 µg/mL).
As to `Cc1ccn(C(C)c2nnc(Nc3ccn(Cc4c(F)cccc4Cl)n3)s2)n1` (centres undefined), the affinity in assay [1], expressed as Ki, was 2 nM. In assay [2], the MIC50 was 1 µM (≈ 0.418 µg/mL).
The MIC is the least concentration at which growth counts as inhibited. A low value points to inhibition by little substance. As for `NNC(=O)c1ccncc1` [ISONIAZID], the MIC in assay [2] was 1.8 µM (≈ 0.247 µg/mL).
The compound `Oc1cc(Cl)ccc1Oc1ccc(Cl)cc1Cl` [TRICLOSAN] came in with an MIC99 in [2] of 43.1 µM (≈ 12.5 µg/mL).
In turn, `Oc1cc(Cc2ccccc2)ccc1Oc1ccc(Cl)cc1Cl` gave an IC50 in assay [1] of 51 nM. This compound also registered an MIC50 in assay [2] of 27 µM (≈ 9.32 µg/mL).
Compound `Cc1csc(C(C)(O)c2nnc(Nc3ccn(Cc4c(F)cccc4F)n3)s2)n1` (centres undefined) came in with an MIC50 in [2] of 0.19 µM (≈ 0.0826 µg/mL). The values for the Kd in assay [11] and in assay [12] were 11.5 nM and 9300 nM, respectively. Moreover, in assay [9], the half-maximal inhibitory concentration (IC50) worked out at 3 nM.
The compound `CCCCCCc1ccc(Oc2ccccc2[N+](=O)[O-])c(O)c1` gave an MIC50 in [2] of 39.6 µM (≈ 12.5 µg/mL).
Turning to `CCCCCCc1ccc(Oc2ccccc2C#N)c(O)c1`, the Ki in assay [1] was 2.14 nM. The same compound yielded an MIC50 in [2] of 8.4 µM (≈ 2.48 µg/mL).
